One assay deals with GgdCK1. Briefly: Steady state kinetics of purified recombinant GgdCK1. In kind it is biochemical, Gallus gallus. On the procedure: (§1) Purification of the Recombinant Enzymes. Transformants (KY895 cells transfected with PZG469 (GgcCK1) and PZG657 (GgdCK2)) were grown in LB medium containing […] ampicillin to A600 0.5-0.6, and the expression was induced with […] IPTG for 4 h at 25° C. […] The cells were homogenized using a French Press, subjected to centrifugation at 12,000×g for 30 minutes (4° C.), filtered through a […] Whatman glass microfiber filter and a […] cellulose acetate filter, and loaded onto the column (2 ml column packed with Glutathione-Sepharose 4 FF, Pharmacia) equilibrated in binding buffer A. Unbound material was removed by washing with 10 column volumes of buffer A. Subsequently the column was washed with 5 ml buffer A containing 10 mM ATP/MgCl2, and incubated for 1 h at room temperature and then 30 min at 4° C. to remove strongly bound contaminating proteins. Afterwards the column was washed again with 10 ml of buffer A and 2 ml of thrombin (50 U/ml) solution were applied on the column. The column was gently shaken overnight at 4° C. to cleave the recombinant protein from the GST-tag. Pure protein was eluted from the column in buffer A. Uncleaved fusion protein was eluted with buffer B (50 mM Tris-HCl pH 8, 10% glycerol, 0,1 % Triton X-100, 10 mM gluthatione reduced). Before storage of enzyme-containing fractions at −80° C., glycerol, Triton X-100, and dithiothreitol were added to 8%, 1% and 1 mM, respectively. Proteins were analyzed on Agilent 2100 Bioanalyzer using Protein Assay Chips.
Enzyme Assays. Bacteria or cell lines were grown as described, harvested and stored at −80° C. until activity testing. Cells were submitted to brief sonication in extraction buffer (50 mM Tris/HCl pH 7.5, 1 mM DTT, 10% (v/v) glycerol, 1% (v/v) Triton X-100, protease inhibitor cocktail Complete™ from Roche Diagnostics). Deoxyribonucleoside kinase activities were determined by initial velocity measurements based on four time samples by the DE-81 filter paper assay using tritium-labelled nucleoside substrates. App. 20 μg extracts were used in the assays. […] One unit of deoxyribonucleoside kinase activity is defined as 1 μmol of the corresponding monophosphate formed per minute. The obtained data were fitted to the Michaelis-Menten equation v=Vmax·[S]/(Km+[S]).

In another assay the target is HsdCK (Homo sapiens, UniProt P27707). To be noted: cited from earlier work; for Kcat / Vmax: literature data.
A further assay concerns the target T1, human dGK (Homo sapiens, UniProt Q16854).
T1 sequence (Q16854 40-277): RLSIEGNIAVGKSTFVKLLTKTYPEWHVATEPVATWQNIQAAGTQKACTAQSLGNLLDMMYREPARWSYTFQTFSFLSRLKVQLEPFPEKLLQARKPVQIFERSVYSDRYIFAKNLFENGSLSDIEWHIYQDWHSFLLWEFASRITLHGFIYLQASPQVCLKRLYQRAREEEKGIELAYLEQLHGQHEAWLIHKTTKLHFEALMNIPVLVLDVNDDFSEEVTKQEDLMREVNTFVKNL
Conditions: Zhu et al. 1998; cited from earlier work.

Assay [1] concerns MCF-7 (breast cancer cell line). Kind of assay: Cell proliferation assay (XTT cytotoxicity) of retrovirus-transduced MCF-7 cells. In kind it is cell-based. To be noted: Homo sapiens, MCF7, read-out: IC50 value of ara-G, MCF-7 parental cell line. How it is done:
HE 293 T packaging cells (ATCC CRL-11268) were cultured at 37° C. in OPTIMEM 1 medium (Life Technologies, Inc.) The constructed pLCXSN plasmid vector was transfected into the packaging cells using LipofectAMINE PLUS (Life Technologies, Inc.) according to the protocol provided by the supplier. The medium from the transfected cells was collected 48 hours after transfection, filtered through a 0.45 µm filter, pelleted by ultracentrifugation (50.000×g, 90 minutes at 4° C.) and dissolved in DMEM (Cambrex, Blo Whittaker Cat. No. 12-741-F).
The virus containing medium was subsequently used to transduce the cancer cell lines with a MOI of 5. […]
Cells were plated at densities range of 1.500-3.500 cells/well in 96-well plates coated with Poly-L-lysine (Sigma Cat. No. P6282) Gemcitabine (obtained from Orifarm A/S—DK) was added after 24 hours of incubation at 37° C., 5% CO2, and the medium containing the nucleoside analog. […] The IC50 value of the investigated drug/compound was calculated as the mean of these experiments using SigmaPlot® (SPSS Science, Dyrberg Trading—DK).
The sensitivity of the untransduced cells, and of the cells transduced with either the retroviral vector alone ore the vector containing chicken kinases for Gemcitabine and Ara-G was determined.

In the next assay the target is GgdCK2 (Gallus gallus, UniProt Q5ZJM7). Briefly: Steady state kinetics of purified recombinant GgdCK2. How it is done:
as §1
Enzyme Assays. Bacteria or cell lines were grown as described, harvested and stored at −80° C. until activity testing. Cells were submitted to brief sonication in extraction buffer (50 mM Tris/HCl pH 7.5, 1 mM DTT, 10% (v/v) glycerol, 1% (v/v) Triton X-100, protease inhibitor cocktail Complete™ from Roche Diagnostics). Deoxyribonucleoside kinase activities were determined by initial velocity measurements based on four time samples by the DE-81 filter paper assay using tritium-labelled nucleoside substrates. App. 20 μg extracts were used in the assays. […]

Assay [2] relates to deoxyribonucleoside kinases in MCF-7 cell crude extract. Briefly: Deoxyribonucleoside kinase activity in crude extracts of MCF-7 cells. To be noted: substrate at 200 μM; triplicates, mean with standard deviation. The class given is biochemical, human. How it is done: Cells were submitted to brief sonication in extraction buffer (50 mM Tris/HCl pH 7.5, 1 mM DTT, 10% (v/v) glycerol, 1% (v/v) Triton X-100, protease inhibitor cocktail (CompleteTM from Roche Diagnostics). […] App. 20 μg extracts were used in the assays. The assay was done as described by Munch-Petersen et al. [Munch-Petersen, B., Knecht, W., Lenz, […]: Functional expression of a multisubstrate deoxyribonucleoside kinase from Drosophila melanogaster and its C-terminal deletion mutants; J.Biol.Chem. 2000 275 6673-6679].

For assay [3], the system named is deoxyribonucleoside kinases in DT 40 chicken cell line crude extract. Briefly: Deoxyribonucleoside kinase activity in crude extracts of DT 40 cells (DE-81 filter paper assay). In kind it is biochemical. Conditions: substrate at 200 μM; triplicates, mean with standard deviation. How it is done: Deoxribonucleoside kinase activities in DT 40 chicken cell line DT 40 cells were grown in RPMI-1640 medium (Gibco) supplemented with 10% foetal calf serum, 1% chicken serum, 2 mM L-glutamine, 10 uM mercaptoethanol and penicillin-streptomycin mixture […], harvested and stored at −80° C. until activity testing. Cells were submitted to brief sonication in extraction buffer (50 mM Tris/HCl pH 7.5, 1 mM DTT, 10% (v/v) glycerol, 1% (v/v) Triton X-100, protease inhibitor cocktail (Complete™ from Roche Diagnostics). Deoxyribonucleoside kinase activities were determined in the DT 40 extracts by initial velocity measurements based on four time samples by the DE-81 filter paper assay using tritium-labelled nucleoside substrates. App. 20 μg extracts were used in the assays. The assay was done as described by Munch-Petersen et al. [Munch-Petersen, B., Knecht, W., Lenz, C., Sondergaard, L. & Piskur, J: Functional expression of a multisubstrate deoxyribonucleoside kinase from Drosophila melanogaster and its C-terminal deletion mutants; J.Biol.Chem. 2000 275 6673-6679].

Assay [4] has as its system deoxyribonucleoside kinase expressed in E. coli TOP10 extracts. Briefly: Deoxyribonucleoside kinase activity in extracts of transformed TOP10 cells. The class given is biochemical. To be noted: approximate.
Where [5] appears, read: data from Bohman 1988 and Habteyesus 1991, read-out: Km.

“And” between values parts separate entries of the source, which are not always exact repeats. Equal entries are not always repeated. Where two headings read alike, the source gives them in different places.

GgdCK2, sequence (Q5ZJM7 whole entry): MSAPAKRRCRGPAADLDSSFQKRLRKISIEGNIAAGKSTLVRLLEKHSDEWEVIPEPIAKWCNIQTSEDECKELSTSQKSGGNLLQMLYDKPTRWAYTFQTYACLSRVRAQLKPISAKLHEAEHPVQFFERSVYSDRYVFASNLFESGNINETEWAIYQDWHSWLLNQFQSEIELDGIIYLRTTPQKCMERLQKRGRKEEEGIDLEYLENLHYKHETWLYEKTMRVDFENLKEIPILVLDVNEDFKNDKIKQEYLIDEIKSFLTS
HsdCK, sequence (P27707 whole entry): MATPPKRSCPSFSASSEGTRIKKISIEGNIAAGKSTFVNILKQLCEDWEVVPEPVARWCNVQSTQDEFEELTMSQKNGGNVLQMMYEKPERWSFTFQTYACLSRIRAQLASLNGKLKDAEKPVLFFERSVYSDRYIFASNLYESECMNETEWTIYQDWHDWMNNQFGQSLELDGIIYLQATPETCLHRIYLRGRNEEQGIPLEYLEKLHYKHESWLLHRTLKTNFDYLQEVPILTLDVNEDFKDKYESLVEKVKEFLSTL

Take `Nc1nc(Cl)nc2c1ncn2[C@H]1C[C@H](O)[C@@H](CO)O1` [CdA, 2-chloro-2′-deoxyadenosine]: in the assay on GgdCK1, the Kcat amounted to 0.64 s⁻¹, the Km is 3.3 ± 0.4 µM and the Vmax is 1273 ± 38 nm/min/mg.
As to `Nc1nc(F)nc2c1ncn2[C@@H]1O[C@H](CO)[C@@H](O)[C@@H]1O` [F-araA, 2-Fluoroadenine 9-beta-D-Arabinofuranoside], the Km on HsdCK (data from Bohman 1988 and Habteyesus 1991) is 200 µM.
With `Nc1ccn([C@@H]2O[C@H](CO)[C@@H](O)C2(F)F)c(=O)n1` [Gemcitabine, 2′,2′-difluorodeoxycytidine], the Km was 60 µM on HsdCK (setting [5]) and 6.3 ± 0.5 µM with GgdCK1. Also, the Kcat on HsdCK was 0.05 s⁻¹; in the assay on GgdCK1, 1.37 s⁻¹. Moreover, the Vmax at HsdCK is reported as 100 nm/min/mg; in the assay with GgdCK1, 2712 ± 357 nm/min/mg.
For `Nc1nc2c(ncn2[C@@H]2O[C@H](CO)[C@@H](O)[C@@H]2O)c(=O)[nH]1` [ara-G, 9-beta-D-arabinofuranosylguanine], on human dGK, the Km was 8 µM and the “relative phosphorylation higher by recombinant human dGK than by recombinant human dCK” value was 76 times. The IC50 in assay [1] came to 1580 ± 158 µM.
Turning to `Nc1ccn([C@@H]2O[C@H](CO)[C@@H](O)[C@@H]2O)c(=O)n1` [araC, cytidine-arabinoside], in the assay on GgdCK1, the Kcat amounted to 0.44 s⁻¹, the Km worked out at 15.3 ± 2.3 µM and the Vmax is 878 ± 33 nm/min/mg. For the same compound, at GgdCK2, the Kcat was 0.34 s⁻¹, the Km turned out to be 1470 ± 664 µM and the Vmax came out at 649 ± 267 nm/min/mg.
As to `Nc1ncnc2c1ncn2[C@H]1C[C@H](O)[C@@H](CO)O1` [dAdo, deoxyadenosine], in assay [2], the “Deoxyribonucleoside kinase activity in crude extract of MCF-7 cells” value is 0.05 ± 0.00 mU/mg. For the same compound, the “Deoxyribonucleoside kinase activity in crude extract of DT 40 cells” value in assay [3] amounted to 0.1 ± 0.01 mU/mg. For the same compound, the Km in the assay with GgdCK1 is 79 µM and 82 µM.
Turning to `Nc1ccn([C@H]2C[C@H](O)[C@@H](CO)O2)c(=O)n1` [dCyd, deoxycytidine], in assay [2], the “Deoxyribonucleoside kinase activity in crude extract of MCF-7 cells” value worked out at 0.01 ± 0.00 mU/mg. The “Deoxyribonucleoside kinase activity in crude extract of DT 40 cells” value in assay [3] was 0.09 ± 0.01 mU/mg. Besides, in the assay with GgdCK1, the Kcat was 0.30 s⁻¹, the Km came out at 4.8 µM and the Vmax is listed as 589 ± 34 nm/min/mg.
Take `Nc1nc2c(ncn2[C@H]2C[C@H](O)[C@@H](CO)O2)c(=O)[nH]1` [dGuo, deoxyguanosine]: the Km at HsdCK (setting [5]) was 100 µM; on human dGK it was 7.6 µM; in the assay with GgdCK1 it was 61.8 ± 11.1 µM. In addition, the Kcat on HsdCK was 0.33 s⁻¹; in the assay on GgdCK1, 0.20 s⁻¹. In addition, the results for the Vmax on HsdCK and in the assay on GgdCK1 were 600 nm/min/mg and 394 ± 37 nm/min/mg, respectively. Further, the “Deoxyribonucleoside kinase activity in crude extract of MCF-7 cells” value in assay [2] is reported as 0.01 ± 0.00 mU/mg. Moreover, the “Deoxyribonucleoside kinase activity in crude extract of DT 40 cells” value in assay [3] is 0.09 ± 0.00 mU/mg.
For `Cc1cn([C@H]2C[C@H](O)[C@@H](CO)O2)c(=O)[nH]c1=O` [dThd, thymidine], the “Deoxyribonucleoside kinase activity in crude extract of MCF-7 cells” value in assay [2] was 0.07 ± 0.00 mU/mg. Also, the “Deoxyribonucleoside kinase activity in crude extract of DT 40 cells” value in assay [3] came out at 0.1 ± 0.03 mU/mg.
As for “GgdCK1: Gallus gallus deoxycytidine kinase 1, 257 amino acid residues, SEQ ID No. 2”, in assay [4], the dCyd phosphorylation efficiency was roughly 8 mU.

The record behind these values is patent US20070248543A1 (ZGene A/S, priority 2004, published 2007).
